Measured values: PubChem BioAssay (NCI)
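Test compounds were applied to cells in 96-well plates for 48 hours at 5 doses. TGI denotes the concentration required for complete inhibition of growth.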

Key:
Experiment in all cases: NCI-60 cell line screen, 48 h
NCI-H23 lung = system: NCI-H23 lung
OVCAR-3 ovarian = system: OVCAR-3 ovarian
HCT-15 colon = system: HCT-15 colon
SK-MEL-5 melanoma = system: SK-MEL-5 melanoma
M19-MEL melanoma = system: M19-MEL melanoma
M14 melanoma = system: M14 melanoma
MOLT-4 leukemia = system: MOLT-4 leukemia
HOP-62 NSCLC = system: HOP-62 NSCLC
SNB-75 CNS = system: SNB-75 CNS
DU-145 prostate = system: DU-145 prostate
SW-620 colon = system: SW-620 colon
NCI-H226 lung = system: NCI-H226 lung
K-562 leukemia = system: K-562 leukemia
COLO 205 colon = system: COLO 205 colon
A498 renal = system: A498 renal
BT-549 breast = system: BT-549 breast
HCT-116 colon = system: HCT-116 colon
CAKI-1 renal = system: CAKI-1 renal
HCC-2998 colon = system: HCC-2998 colon
CCRF-CEM leukemia = system: CCRF-CEM leukemia
MALME-3M melanoma = system: MALME-3M melanoma
DMS 114 small cell lung = system: DMS 114 small cell lung
MCF7 breast = system: MCF7 breast
UO-31 renal = system: UO-31 renal
SF-268 CNS = system: SF-268 CNS
IGROV1 ovarian = system: IGROV1 ovarian
HOP-18 NSCLC = system: HOP-18 NSCLC
EKVX NSCLC = system: EKVX NSCLC
U251 CNS = system: U251 CNS
SF-539 CNS = system: SF-539 CNS
HS 578T breast = system: HS 578T breast
ACHN renal = system: ACHN renal
SK-MEL-2 melanoma = system: SK-MEL-2 melanoma
T-47D breast = system: T-47D breast
SN12C renal = system: SN12C renal
HOP-92 NSCLC = system: HOP-92 NSCLC
OVCAR-8 ovarian = system: OVCAR-8 ovarian
SK-MEL-28 melanoma = system: SK-MEL-28 melanoma
SF-295 CNS = system: SF-295 CNS
DMS 273 small cell lung = system: DMS 273 small cell lung
OVCAR-4 ovarian = system: OVCAR-4 ovarian
OVCAR-5 ovarian = system: OVCAR-5 ovarian
NCI-H522 lung = system: NCI-H522 lung
MDA-MB-435 = system: MDA-MB-435
NCI-H460 lung = system: NCI-H460 lung
LOX IMVI melanoma = system: LOX IMVI melanoma
LXFL 529 NSCLC = system: LXFL 529 NSCLC
786-0 renal = system: 786-0 renal
A549 NSCLC = system: A549 NSCLC
SNB-19 CNS = system: SNB-19 CNS
XF 498 CNS = system: XF 498 CNS
SNB-78 CNS = system: SNB-78 CNS
UACC-62 melanoma = system: UACC-62 melanoma
TK-10 renal = system: TK-10 renal
HL-60(TB) leukemia = system: HL-60(TB) leukemia
SK-OV-3 ovarian = system: SK-OV-3 ovarian
HT29 colon = system: HT29 colon
SR leukemia = system: SR leukemia
UACC-257 melanoma = system: UACC-257 melanoma
DLD-1 colon = system: DLD-1 colon
RPMI-8226 leukemia = system: RPMI-8226 leukemia
KM20L2 colon = system: KM20L2 colon
KM12 colon = system: KM12 colon

## O=C(O)COc1ccc(C(=O)/C(SS/C(C(=O)c2ccc(OCC(=O)O)c(Cl)c2Cl)=C2\C=C(c3ccc(F)cc3)SS2)=C2/C=C(c3ccc(F)cc3)SS2)c(Cl)c1Cl
NCI-H23 lung
  TGI: 33.7 µM
OVCAR-3 ovarian
  TGI: 20.7 µM
HCT-15 colon
  TGI: 28.3 µM
SK-MEL-5 melanoma
  TGI: 51.5 µM
M19-MEL melanoma
  TGI: 44.6 µM
M14 melanoma
  TGI: 54.8 µM
MOLT-4 leukemia
  TGI: 31.2 µM
HOP-62 NSCLC
  TGI: > 84.8 µM
SNB-75 CNS
  TGI: 27.4 µM
DU-145 prostate
  TGI: > 100 µM
SW-620 colon
  TGI: 36.3 µM
NCI-H226 lung
  TGI: 40.4 µM
K-562 leukemia
  TGI: 32.6 µM
COLO 205 colon
  TGI: 25 µM
A498 renal
  TGI: 77.5 µM
BT-549 breast
  TGI: 71.5 µM
HCT-116 colon
  TGI: 25.6 µM
CAKI-1 renal
  TGI: > 77.9 µM
HCC-2998 colon
  TGI: > 100 µM
CCRF-CEM leukemia
  TGI: 18.1 µM
MALME-3M melanoma
  TGI: 77.3 µM
DMS 114 small cell lung
  TGI: 12.7 µM
MCF7 breast
  TGI: > 100 µM
UO-31 renal
  TGI: 36.4 µM
SF-268 CNS
  TGI: 23.1 µM
IGROV1 ovarian
  TGI: 41.7 µM
HOP-18 NSCLC
  TGI: 43.6 µM
EKVX NSCLC
  TGI: > 81.4 µM
U251 CNS
  TGI: 24.7 µM
SF-539 CNS
  TGI: 26.9 µM
HS 578T breast
  TGI: 19 µM
ACHN renal
  TGI: 56 µM
SK-MEL-2 melanoma
  TGI: 34.7 µM
T-47D breast
  TGI: 31.3 µM
SN12C renal
  TGI: 38.7 µM
HOP-92 NSCLC
  TGI: 15.4 µM
OVCAR-8 ovarian
  TGI: 55.8 µM
SK-MEL-28 melanoma
  TGI: 38.8 µM
SF-295 CNS
  TGI: 69.8 µM
DMS 273 small cell lung
  TGI: 27.9 µM
OVCAR-4 ovarian
  TGI: 40.3 µM
OVCAR-5 ovarian
  TGI: 74.7 µM
NCI-H522 lung
  TGI: 8.44 µM
MDA-MB-435
  TGI: > 100 µM
NCI-H460 lung
  TGI: 49.1 µM
LOX IMVI melanoma
  TGI: 12.9 µM
LXFL 529 NSCLC
  TGI: 13.6 µM
786-0 renal
  TGI: > 57 µM
A549 NSCLC
  TGI: > 93.4 µM
SNB-19 CNS
  TGI: 53.7 µM
XF 498 CNS
  TGI: 27 µM
SNB-78 CNS
  TGI: 43.1 µM
UACC-62 melanoma
  TGI: 23.9 µM
TK-10 renal
  TGI: 99.2 µM
HL-60(TB) leukemia
  TGI: 6.03 µM
SK-OV-3 ovarian
  TGI: > 88.7 µM
HT29 colon
  TGI: 70.6 µM
SR leukemia
  TGI: 13.4 µM
UACC-257 melanoma
  TGI: 68.8 µM
DLD-1 colon
  TGI: > 53.7 µM
RPMI-8226 leukemia
  TGI: 31.5 µM
KM20L2 colon
  TGI: > 95.8 µM
KM12 colon
  TGI: 32.6 µM
